In ChEMBL document CHEMBL1201862, “PubChem BioAssay data set” (2004):
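Following 48 hours of exposure in 96-well plates, responses at five concentrations were used to interpolate endpoints linearly. GI50 = concentration required for 50% inhibition of growth.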 Active and inactive are the calls of the source. Rule as the data show it: active = GI50 up to about 1.1 µM and inactive = higher.

Key:
Assay in all cases: inhibition of tumour cell growth, NCI panel, 48 h
786-0 = tested on: 786-0
EKVX = tested on: EKVX
HCT-116 = tested on: HCT-116
HOP-62 = tested on: HOP-62
HOP-92 = tested on: HOP-92
HT-29 = tested on: HT-29
K562 = tested on: K562
KM12 = tested on: KM12
LOX IMVI = tested on: LOX IMVI
OVCAR-3 = tested on: OVCAR-3
OVCAR-5 = tested on: OVCAR-5
SF-539 = tested on: SF-539
SK-MEL-28 = tested on: SK-MEL-28
SW-620 = tested on: SW-620
TK-10 = tested on: TK-10
UO-31 = tested on: UO-31

Measured: GI50

COc1ccc2c(c1)[n+]([O-])c(/C(C)=N/NC(=O)c1ccccc1O)c(C)[n+]2[O-]
inactive: 786-0 > 100 µM | EKVX > 100 µM | HCT-116 > 100 µM | HOP-62 > 100 µM | HOP-92 > 100 µM | HT-29 > 100 µM | K562 > 100 µM | KM12 > 100 µM | LOX IMVI > 100 µM | OVCAR-3 > 100 µM | OVCAR-5 > 100 µM | SF-539 > 100 µM | SK-MEL-28 > 100 µM | SW-620 > 100 µM | TK-10 > 100 µM | UO-31 > 100 µM

O=C(c1ccccc1)c1nc2ccc(Cl)cc2c2c1Cc1ccccc1-2
inactive: 786-0 > 100 µM | EKVX > 100 µM | HCT-116 > 100 µM | HOP-62 > 100 µM | K562 > 100 µM | KM12 > 100 µM | LOX IMVI > 100 µM | OVCAR-3 > 100 µM | OVCAR-5 > 100 µM | SF-539 > 100 µM | SK-MEL-28 > 100 µM | SW-620 > 100 µM | TK-10 > 100 µM | UO-31 > 100 µM

C=C1C(=O)OC2C/C(C)=C/CC/C(C)=C/CCC3(COC(C)=O)OC3CC12 (stereo unspecified)
inactive: 786-0 5.65 µM | EKVX 19.6 µM | HCT-116 1.84 µM | HOP-62 18.7 µM | HT-29 8.32 µM | K562 5.68 µM | KM12 13.7 µM | LOX IMVI 9.46 µM | OVCAR-3 6.19 µM | OVCAR-5 16.5 µM | SF-539 2.85 µM | SK-MEL-28 11.1 µM | SW-620 2.04 µM | TK-10 7.14 µM | UO-31 12.7 µM

Cc1cc(Cl)ccc1NC(=O)CCCC(=O)C1C/C(=N/O)CC/C1=N\O (stereo unspecified)
inactive: 786-0 > 100 µM | EKVX > 100 µM | HCT-116 > 100 µM | HOP-62 > 100 µM | HOP-92 > 100 µM | HT-29 > 100 µM | K562 > 100 µM | KM12 > 100 µM | OVCAR-3 > 100 µM | OVCAR-5 > 100 µM | SF-539 > 100 µM | SK-MEL-28 > 100 µM | SW-620 > 100 µM | TK-10 > 100 µM | UO-31 > 100 µM

C#CC(C)(C)Oc1cc(O)c2c(=O)c3ccccc3n(C)c2c1
inactive: 786-0 53.3 µM | EKVX > 100 µM | HCT-116 > 100 µM | HOP-62 94 µM | HOP-92 > 100 µM | HT-29 34 µM | K562 > 100 µM | LOX IMVI 19.3 µM | OVCAR-3 > 100 µM | OVCAR-5 > 100 µM | SF-539 15.5 µM | SK-MEL-28 > 100 µM | TK-10 > 100 µM | UO-31 > 100 µM

COC(=O)C(=C/c1ccc(OC)cc1)/C(C(=O)O)=C(/C)c1ccccc1
inactive: 786-0 > 100 µM | EKVX > 100 µM | HCT-116 > 100 µM | HOP-62 > 100 µM | HOP-92 > 100 µM | HT-29 > 100 µM | K562 > 100 µM | KM12 > 100 µM | LOX IMVI > 100 µM | OVCAR-3 > 100 µM | OVCAR-5 > 100 µM | SF-539 > 100 µM | SW-620 > 100 µM | TK-10 > 100 µM | UO-31 > 100 µM

Cc1ccc(S(=O)(=O)NC(=O)C#CCOC2CCCCO2)cc1 (stereo unspecified)
inactive: 786-0 > 100 µM | EKVX > 100 µM | HCT-116 > 100 µM | HOP-92 > 100 µM | HT-29 > 100 µM | K562 > 100 µM | LOX IMVI > 100 µM | OVCAR-3 > 100 µM | OVCAR-5 > 100 µM | SF-539 > 100 µM | SK-MEL-28 > 100 µM | SW-620 > 100 µM | TK-10 > 100 µM | UO-31 > 100 µM

COc1ccc2nc3cc(Cl)ccc3c(NCCC[N+](C)(C)CCCCCCCCCCCCCCCC[N+](C)(C)CCCNc3c4ccc(Cl)cc4nc4ccc(OC)cc34)c2c1
inactive: 786-0 3.63 µM | EKVX 3.21 µM | HCT-116 1.75 µM | HOP-62 2.88 µM | HT-29 1.61 µM | K562 1.85 µM | KM12 1.64 µM | LOX IMVI 1.96 µM | OVCAR-3 4.81 µM | OVCAR-5 2.92 µM | SF-539 2.25 µM | SK-MEL-28 2.08 µM | SW-620 1.96 µM | TK-10 4.22 µM | UO-31 > 10 µM

COc1cc(Nc2cnc3cc(C(F)(F)F)ccc3n2)cc(OC)c1OC
inactive: 786-0 > 100 µM | EKVX > 100 µM | HCT-116 > 100 µM | HOP-62 > 100 µM | HOP-92 > 100 µM | HT-29 > 100 µM | LOX IMVI > 100 µM | OVCAR-3 > 100 µM | OVCAR-5 > 100 µM | SF-539 > 100 µM | SK-MEL-28 > 100 µM | SW-620 > 100 µM | TK-10 > 100 µM | UO-31 > 100 µM

O=C(Nc1ccccc1C(=O)NC(=O)c1ccccc1NC(=O)c1ccccc1)c1ccccc1
inactive: 786-0 12 µM | EKVX 8.71 µM | HCT-116 3.45 µM | HOP-62 12.4 µM | HOP-92 1.99 µM | HT-29 2.22 µM | K562 4.83 µM | KM12 1.58 µM | LOX IMVI 2.24 µM | OVCAR-3 3.29 µM | OVCAR-5 3.6 µM | SF-539 5.09 µM | SK-MEL-28 3.13 µM | SW-620 4.84 µM | TK-10 10.9 µM

COc1ccccc1NC(=O)NS(=O)(=O)c1ccccc1
inactive: 786-0 > 100 µM | EKVX 88.7 µM | HCT-116 > 100 µM | HOP-62 69.2 µM | HOP-92 > 100 µM | HT-29 > 100 µM | KM12 > 100 µM | LOX IMVI > 100 µM | OVCAR-5 > 100 µM | SF-539 > 100 µM | SK-MEL-28 > 100 µM | SW-620 > 100 µM | TK-10 > 100 µM | UO-31 > 100 µM

CC(C)N(C(=O)C12C3C4C1C1C2C3C41C(=O)C(C)(C)C)C(C)C (stereo unspecified)
inactive: 786-0 > 100 µM | EKVX > 100 µM | HCT-116 92.9 µM | HOP-62 > 100 µM | HT-29 76.7 µM | K562 20.8 µM | KM12 > 100 µM | LOX IMVI > 100 µM | OVCAR-3 > 100 µM | OVCAR-5 > 100 µM | SF-539 > 100 µM | SK-MEL-28 > 100 µM | SW-620 47.4 µM | TK-10 > 100 µM | UO-31 46.1 µM

O=[N+]([O-])c1ccc(N=P(c2ccccc2)(c2ccccc2)c2ccccc2)n2nnnc12
inactive: 786-0 28.1 µM | EKVX 58.7 µM | HOP-62 25.6 µM | HOP-92 22.2 µM | HT-29 > 100 µM | K562 67 µM | KM12 66.4 µM | LOX IMVI > 100 µM | OVCAR-3 34.5 µM | OVCAR-5 > 100 µM | SF-539 23 µM | SK-MEL-28 > 100 µM | SW-620 > 100 µM | TK-10 > 100 µM | UO-31 78.7 µM

Cc1cccc(C)c1NC(=O)C(=O)Nn1c(NN)nc2ccccc2c1=O
inactive: 786-0 > 100 µM | EKVX > 100 µM | HCT-116 > 100 µM | HOP-62 > 100 µM | HOP-92 > 100 µM | HT-29 > 100 µM | K562 > 100 µM | KM12 > 100 µM | LOX IMVI > 100 µM | OVCAR-3 > 100 µM | OVCAR-5 > 100 µM | SF-539 > 100 µM | SK-MEL-28 > 100 µM | SW-620 > 100 µM | TK-10 > 100 µM | UO-31 > 100 µM

CCCCOC(=O)NC(=O)c1cn(CCCOC(=O)CCCCCCCCC(=O)OCCCn2cc(C(=O)NC(=O)OCCCC)c(=O)[nH]c2=O)c(=O)[nH]c1=O
inactive: 786-0 > 100 µM | EKVX > 100 µM | HCT-116 > 100 µM | HOP-62 > 100 µM | HOP-92 > 100 µM | HT-29 > 100 µM | K562 > 100 µM | KM12 > 100 µM | LOX IMVI > 100 µM | OVCAR-3 > 100 µM | OVCAR-5 > 100 µM | SF-539 > 100 µM | SK-MEL-28 > 100 µM | SW-620 > 100 µM | TK-10 > 100 µM | UO-31 > 100 µM

N#Cc1nc(Nc2ccc([N+](=O)[O-])cc2)sc1N
inactive: 786-0 21.2 µM | EKVX 32.2 µM | HCT-116 11.3 µM | HOP-62 20.4 µM | HOP-92 27.3 µM | HT-29 33.5 µM | K562 8.75 µM | KM12 21.9 µM | LOX IMVI 7.19 µM | OVCAR-3 16.9 µM | OVCAR-5 28.6 µM | SF-539 4.02 µM | SK-MEL-28 22.9 µM | SW-620 20.5 µM | TK-10 22.9 µM | UO-31 7.38 µM

O=C1C2C3C=C4c5ccccc5N(c5ccccc5)C4([C@@H]2C(=O)N1c1ccc(F)cc1)[C@H]1C(=O)N(c2ccc(F)cc2)C(=O)[C@@H]31 (stereo partly specified)
inactive: 786-0 > 100 µM | EKVX > 100 µM | HOP-92 > 100 µM | K562 > 100 µM | KM12 > 100 µM | LOX IMVI > 100 µM | OVCAR-3 > 100 µM | OVCAR-5 > 100 µM | SF-539 > 100 µM | SK-MEL-28 > 100 µM | SW-620 > 100 µM | TK-10 > 100 µM | UO-31 20.9 µM

C=C1CC2OC(=O)C(=C)C2C(O)C2C(=C)CCC12 (stereo unspecified)
inactive: 786-0 13.4 µM | EKVX 6.98 µM | HCT-116 3.62 µM | HOP-92 2.06 µM | HT-29 3.78 µM | K562 3.47 µM | KM12 10.8 µM | OVCAR-3 10.1 µM | OVCAR-5 12.3 µM | SF-539 3.69 µM | SK-MEL-28 7.28 µM | SW-620 3.82 µM | TK-10 14.8 µM | UO-31 16.1 µM
